Assay results reported in PMC12756182, “Co-option of an ancestral peptidase controls developmental patterning in multicellular cyanobacteria” (iScience, 2025).

How the values were obtained:
[1] = tested on: Alr1666 (PatP); assay: LC-MS/MS identification of Alr1666-generated non-tryptic PatX peptides; type: biochemical, Nostoc PCC 7120; settings: LC-MS/MS of excised 18–25 kDa gel region; three experimental replicates; with vs without Alr1666-V5
Description: Figure 5 Ex vivo cleavage assay of TrxA-PatXΔSS-MBP by the putative peptidase Alr1666 (A) Schematic of the TrxA-PatXΔSS-MBP fusion protein construct, shown before and after potential cleavage by Alr1666. (B) Immunoblot analysis of cleavage assays. Expression of trxA-patXΔSS-malE was induced with IPTG; expression of alr1666-V5 was induced with arabinose. The blot was probed with anti-TrxA antibodies (top panel) to detect the full-length TrxA-PatXΔSS-MBP fusion and any TrxA-PatX cleavage product, and with anti-V5 antibodies (bottom panel) to confirm Alr1666-V5 production. Lanes: 1, no inducer (negative control); 2, IPTG for 3 h; 3, IPTG for 1 h; 4, co-induction with IPTG and arabinose for 3 h; 5, sequential induction (IPTG for 1 h, then arabinose for 3 h). (C) Liquid chromatography-tandem mass spectrometry analysis of peptides from excised gel bands (see Figure S6A). […] Trx-PatXΔSS-MBP + Alr1666-V5: Experimental assay with Alr1666-V5. ∗0 values: No non-tryptic peptides were detected in control samples. […]
The 18–25 kDa region was excised to identify PatX-cleavage peptides by mass spectrometry (Figure S6A). Because higher molecular-weight bands smear downward during SDS-PAGE, the excised slice also contains proteins from those upper regions, and they will be detected as well. […] They were uniquely detected in Alr1666-expressing samples ([…]). […]

[2] = tested on: HetR / hetP promoter; assay: EMSA of HetR with the hetP promoter; type: biochemical, Nostoc PCC 7120; settings: HetR 1 μM, hetP promoter 50 nM (6-FAM), peptide 1 μM, pH 8, 4°C, 30 minutes, one representative result
Description: Heterocysts are indicated by white arrows. Time denotes hours post combined nitrogen starvation. Scale bars, 30 μm. […] Sector 1: wild-type. Sector 2: malE mutant. […] Red color indicates MBP periplasmic export.
The hetP gene promoter (alr2818) was amplified by PCR using PhetP fw and PhetP rv primers, with the forward primer labeled at the 5′ end with 6-FAM. Purified HetR protein (as previously described),[3] was incubated with the hetP promoter (50 nM) in a buffer containing 10 mM Tris (pH 8), 150 mM KCl, 500 nM EDTA, 0.1% Triton X-100, 12.5% glycerol, 1 mM DTT, and 1 μg DiDC competitor at 4°C in the dark for 30 minutes. Electrophoresis was conducted at 250 V for 60 minutes, and DNA was visualized using the Typhoon FLA 9500.

[3] = tested on: Nostoc heterocyst differentiation; settings: cited from earlier work
[4] = molecular target: T1, HetR (Nostoc sp., UniProt P27709); settings: cited from earlier work
T1 construct: made in house
T1 sequence (P27709 1-299): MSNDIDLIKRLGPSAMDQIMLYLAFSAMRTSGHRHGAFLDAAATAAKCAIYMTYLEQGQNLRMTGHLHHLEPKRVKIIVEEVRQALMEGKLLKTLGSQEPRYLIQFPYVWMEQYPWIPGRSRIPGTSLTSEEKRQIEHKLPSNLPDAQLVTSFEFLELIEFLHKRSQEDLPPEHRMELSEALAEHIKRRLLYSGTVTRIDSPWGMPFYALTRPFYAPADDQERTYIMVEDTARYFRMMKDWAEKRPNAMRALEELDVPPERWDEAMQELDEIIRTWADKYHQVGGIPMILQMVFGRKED
Description: Heterocyst differentiation involves four stages—induction, pattern formation, commitment, and morphogenesis—regulated by signaling cascades involving the master transcriptional regulator HetR.[10] Nitrogen starvation triggers 2-oxoglutarate (2-OG) accumulation, activating NtcA to upregulate hetR.[11]^,[12] Deletion of hetR prevents differentiation, while its overexpression induces contiguous heterocysts formation even under non-permissive conditions.[10] HetR initiates a negative feedback loop by activating patS expression.[13] The resulting 17-amino-acid product is processed into the signalin ...

[5] = tested on: Nostoc PCC 7120 heterocyst differentiation; settings: cited from earlier work
Description: While hetR is conserved across heterocyst-forming cyanobacteria, patS and hetN are not,[23] implying the existence of additional inhibitory factors. Recently, PatX, containing the HRGTGR hexapeptide, was identified as coextensive with HetR in filamentous cyanobacteria.[23]

[6] = molecular target: T2, HetR (Nostoc PCC 7120) (UniProt P27709); assay: EMSA; settings: EMSA: 10 mM Tris pH 8, 150 mM KCl, 500 nM EDTA, 0.1% Triton X-100, 12.5% glycerol, 1 mM DTT, 1 ug DiDC competitor (so in the source), 50 nM DNA, 4 C, 30 min in the …
T2 sequence: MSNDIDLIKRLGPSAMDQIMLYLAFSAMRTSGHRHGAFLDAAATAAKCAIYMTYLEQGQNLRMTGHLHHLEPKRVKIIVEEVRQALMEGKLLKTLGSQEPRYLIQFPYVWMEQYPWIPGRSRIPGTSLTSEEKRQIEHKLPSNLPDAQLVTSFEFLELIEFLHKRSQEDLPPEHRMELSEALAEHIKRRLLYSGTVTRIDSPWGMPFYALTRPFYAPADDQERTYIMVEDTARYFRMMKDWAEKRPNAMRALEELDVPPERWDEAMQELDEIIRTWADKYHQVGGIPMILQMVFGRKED

[7] = molecular target: T3, HetR (Nostoc PCC 7120, UniProt P27709 1-299); assay: ITC; PatX6 (200 μM, syringe) titrated into HetR (22 μM, cell), 25°C, PBS pH 7.4, one-site binding model, MicroCal PEAQ-ITC; settings: both partners purified
T3 construct: HetR, master transcriptional regulator of heterocyst differentiation, Nostoc/Anabaena PCC 7120; purified protein used in ITC and EMSA; also called master transcriptional regulator HetR; source: purified (as previously described)
T3 sequence (looked up): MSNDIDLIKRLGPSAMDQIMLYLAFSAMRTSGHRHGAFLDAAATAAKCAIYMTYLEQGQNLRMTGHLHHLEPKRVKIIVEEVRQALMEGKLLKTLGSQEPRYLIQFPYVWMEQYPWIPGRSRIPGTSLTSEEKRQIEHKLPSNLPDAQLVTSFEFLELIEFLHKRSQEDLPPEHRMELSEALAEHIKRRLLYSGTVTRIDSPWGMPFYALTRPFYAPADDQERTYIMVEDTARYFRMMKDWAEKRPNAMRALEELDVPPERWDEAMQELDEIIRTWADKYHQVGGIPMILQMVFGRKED

## AFSPSNSQNMISLK [non-tryptic PatX cleavage peptide flanking HRGTGR, detected by mass spectrometry]
[1]
  detection of non-tryptic cleavage peptide: exclusively present in peptidase-producing strains

## ERGSGR [PatS6, signaling peptide PatS6 (ERGSGR), positive control in EMSA]
[2]
  effect on HetR-hetP promoter interaction: abolished this interaction
[3]
  effect of exogenous peptide on differentiation: suppress differentiation
[4]
  binding to HetR and effect on its DNA-binding function: binds to HetR to inhibit its DNA-binding function

## GPDIIFWAHDR [non-tryptic PatX cleavage peptide flanking HRGTGR, detected by mass spectrometry]
[1]
  detection of non-tryptic cleavage peptide: exclusively present in peptidase-producing strains

## PatS: 17-amino-acid product of patS, processed into PatS5 or PatS6 (MKAIMLVNFCDERGSGR; UniProt O52748 1-17, looked up)
[5]
  effect of overexpression on heterocyst differentiation: inhibits heterocyst differentiation

## RGSGR [PatS5, signaling peptide PatS5 (RGSGR)]
[3]
  effect of exogenous peptide on differentiation: suppress differentiation
[4]
  binding to HetR and effect on its DNA-binding function: binds to HetR to inhibit its DNA-binding function

## TGAGTTATACGCTATATCAATGGGGATTTTGAGCATTTTCTACTAGGTAATGAGGGGTTAGACCCCTCGCCTACTGTGCATTTGAGACTTTAAACCTACTAAGAGAATTTACCACTAAAT (double strand) [hetP promoter PCR fragment]
[6]
  binding: binds

B1: HetN: another inhibitor that maintains heterocyst patterning, containing the RGSGR pentapeptide (protein, UniProt P37694 1-287, looked up)
Ketoacyl reductase HetN: MTTLTGKTVLLTGASRGLGVYIARALAKEQATVVCVSRSQSGLAQTCNAVKAAGGKAIAIPFDVRNTSQLSALVQQAQDIVGPIDVLINNAGIEINGTFANYSLAEIQSIFNTNLLAAMELTRLLLPSMMERGSGRIVNIASLAGKKGVAFNSVYSASKAGLIMWTDAMRQELVGTGVNISVVCPGYVSQTGMTVDTRVSAPKLAGISTPKSVANAVVKAIKNKTTEVIVNQNPITESLTKLMLAVGQISPTSVDRIYRWFGVVDFNQKRAENRVKDGYVAVESHRS
[5]
  effect of overexpression on heterocyst differentiation: inhibits heterocyst differentiation

B2: PatX-6 peptide (HRGTGR) (peptide)
peptide: HRGTGR
notes: also called PatX6 hexapeptide; PatX-derived hexapeptide; source: synthetic peptide (Genecust)
[7]
  Kd: 88 nM
